Among the data in PubChem BioAssay (NCI) are GI50 and TGI values, retold here.

Among the test systems are SK-OV-3 ovarian; NCI-H23 lung; T-47D breast; SK-MEL-2 melanoma; OVCAR-5 ovarian; EKVX NSCLC; M14 melanoma; RXF 393 renal; SK-MEL-5 melanoma; HCC-2998 colon.
Common to all, as to assay: NCI tumour cell line growth inhibition, 48 h

Where “and” joins values, the source holds several entries; their conditions need not be identical. Equal values may be shown once.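 Cells were grown in 96-well plates and exposed to each compound for 48 hours at five concentrations; endpoints were interpolated linearly between bracketing concentrations, or set to the highest concentration if not reached. GI50 marks 50% less growth. At the TGI there is no net growth.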

As for `CC1(C)N=C(N)N=C(N)N1c1ccc(OCC(=O)Nc2ccc(S(=O)(=O)F)cc2Cl)c(Cl)c1`, the GI50 was over 100 µM in the assay with SK-OV-3 ovarian; 4.37 µM in the assay with NCI-H23 lung; over 100 µM in the assay with T-47D breast; over 100 µM with SK-MEL-2 melanoma; over 100 µM in the assay on OVCAR-5 ovarian; over 100 µM in the assay on EKVX NSCLC. The GI50 with M14 melanoma was 5.01 µM; in the assay on RXF 393 renal it was 17.5 µM; with SK-MEL-5 melanoma it was 1.15 µM; in the assay on HCC-2998 colon, 23.2 µM. The TGI in the assay on SK-OV-3 ovarian, in the assay with NCI-H23 lung, in the assay on T-47D breast, in the assay on SK-MEL-2 melanoma, with OVCAR-5 ovarian and in the assay on EKVX NSCLC was over 100 µM throughout. Also, the TGI with M14 melanoma, with RXF 393 renal, in the assay on SK-MEL-5 melanoma and with HCC-2998 colon was over 100 µM in each case.
On to `CN1C(=O)C(N=Nc2ccc([N+](=O)[O-])cc2)SC1=S` (stereo not given), for which the GI50 was 7.51 µM and 11.2 µM in the assay on SK-OV-3 ovarian; 3.89 µM and 7.46 µM with NCI-H23 lung; 2.71 µM and 4.26 µM in the assay on T-47D breast; 8.98 µM and 5.29 µM in the assay on SK-MEL-2 melanoma; 10.6 µM and 15.4 µM in the assay with OVCAR-5 ovarian; 2.82 µM and 8.54 µM in the assay on EKVX NSCLC. Further, the GI50 in the assay on M14 melanoma was 7.61 µM and 19.2 µM; in the assay on RXF 393 renal, 16.6 µM and 12.5 µM; with SK-MEL-5 melanoma it was 7.77 µM and 11.1 µM; in the assay with HCC-2998 colon it was 3.21 µM and 6.71 µM. Further, the TGI in the assay on SK-OV-3 ovarian is 74.4 µM and 51.5 µM; in the assay on NCI-H23 lung it was 77.1 µM and 76.9 µM; with T-47D breast it was > 100 µM and 47.5 µM; in the assay on SK-MEL-2 melanoma, 37.8 µM and 42.5 µM; in the assay on OVCAR-5 ovarian, > 100 µM and 99.6 µM; in the assay with EKVX NSCLC, 28 µM and 96.9 µM. Moreover, the TGI with M14 melanoma was over 100 µM; in the assay with RXF 393 renal it was 97.4 µM and 77.5 µM; in the assay with SK-MEL-5 melanoma, 28.9 µM and 27 µM; in the assay on HCC-2998 colon, 48.2 µM and 49.6 µM.
Regarding `CNC(=O)/C=C/C1=CN2C(=O)c3ccc(C)c(O)c3NC(OC)C2C1` (stereo not given), the TGI was over 8.66 µM in the assay with SK-OV-3 ovarian; under 0.0177 µM with NCI-H23 lung; under 0.0489 µM with T-47D breast; under 0.01 µM with SK-MEL-2 melanoma; over 31 µM with OVCAR-5 ovarian; under 0.0344 µM with EKVX NSCLC. Moreover, the TGI in the assay with M14 melanoma was 0.0191 µM; with RXF 393 renal, under 0.01 µM; in the assay with SK-MEL-5 melanoma it was 0.186 µM; in the assay with HCC-2998 colon, under 0.0173 µM.
`CC1(C)CC[C@]23CC[C@]4(C)[C@H](CC[C@@H]5[C@@]6(C)CCCNC(C)(C)[C@@H]6CC[C@]54C)[C@H]2[C@H]1OC3`: the GI50 was 2.73 µM in the assay on SK-OV-3 ovarian; 1.76 µM with NCI-H23 lung; 1.71 µM in the assay on T-47D breast; 1.95 µM in the assay with SK-MEL-2 melanoma; 1.6 µM with OVCAR-5 ovarian; 1.68 µM in the assay with EKVX NSCLC. Besides, the GI50 was 1.77 µM with M14 melanoma, 1.56 µM in the assay with RXF 393 renal, 1.69 µM in the assay on SK-MEL-5 melanoma and 1.54 µM in the assay on HCC-2998 colon. The TGI is 7.93 µM in the assay on SK-OV-3 ovarian; 3.5 µM with NCI-H23 lung; 3.69 µM in the assay with T-47D breast; 4.09 µM with SK-MEL-2 melanoma; 3.04 µM with OVCAR-5 ovarian; 3.37 µM in the assay on EKVX NSCLC. For the same compound, the TGI was found to be 3.31 µM with M14 melanoma, 2.98 µM in the assay with RXF 393 renal, 3.06 µM in the assay with SK-MEL-5 melanoma and 2.97 µM in the assay on HCC-2998 colon.
With `Cc1cc(S(=O)(=O)Nc2nc3ccccc3c(=O)n2Cc2ccco2)c(S)cc1Cl`, the GI50 in the assay with NCI-H23 lung is 46 µM; in the assay on T-47D breast, 15 µM; in the assay with OVCAR-5 ovarian it was 60.4 µM; in the assay with EKVX NSCLC, 22.8 µM; with M14 melanoma, 69.9 µM; in the assay on RXF 393 renal it was 61.7 µM. In addition, the figures for the GI50 in the assay on SK-MEL-5 melanoma and in the assay with HCC-2998 colon were 22.8 µM and 38.6 µM, respectively. Also, the TGI in the assay on NCI-H23 lung is over 100 µM; with T-47D breast it was 81.4 µM; in the assay with OVCAR-5 ovarian, over 100 µM; in the assay with EKVX NSCLC, 70.6 µM; in the assay on M14 melanoma, over 100 µM; with RXF 393 renal it was over 100 µM. The TGI in the assay with SK-MEL-5 melanoma and in the assay on HCC-2998 colon was over 100 µM throughout.
For `CCCCCc1cc(/C=C2/N=C(c3ccc[nH]3)C=C2OC)[nH]c1C`, the TGI in the assay on SK-OV-3 ovarian was 1.13 µM; in the assay on NCI-H23 lung it was 0.346 µM; with T-47D breast, 0.421 µM; in the assay with OVCAR-5 ovarian, 1.26 µM; in the assay on EKVX NSCLC, 1.4 µM; in the assay with M14 melanoma, under 0.034 µM. In addition, the results for the TGI in the assay with RXF 393 renal, in the assay with SK-MEL-5 melanoma and with HCC-2998 colon were 0.197 µM, 0.0422 µM and 1.02 µM, respectively.
With `CCOC(=O)C#Cc1cccc(C#CC(=O)OCC)c1`, the TGI with SK-OV-3 ovarian stood at 19.5 µM; in the assay on NCI-H23 lung it was 10.6 µM; with T-47D breast, 98.4 µM; with SK-MEL-2 melanoma it was 5.04 µM; with OVCAR-5 ovarian, 2.4 µM; with EKVX NSCLC, 2.42 µM. For the same compound, the TGI turned out to be 5.95 µM with M14 melanoma, 10.9 µM in the assay on RXF 393 renal, 8.29 µM in the assay on SK-MEL-5 melanoma and 2.1 µM in the assay on HCC-2998 colon.
As for `COc1ccc(C2=C(c3ccccc3)C(=O)N3CCCC3C2)cc1` (stereo not given), the GI50 with SK-OV-3 ovarian was over 100 µM; in the assay with NCI-H23 lung it was over 32.3 µM; with T-47D breast, over 52.4 µM; with SK-MEL-2 melanoma, 23.8 µM; in the assay with OVCAR-5 ovarian, over 100 µM; in the assay on EKVX NSCLC it was over 82.9 µM. Also, the GI50 with M14 melanoma is 9.54 µM; in the assay with RXF 393 renal, 25.5 µM; in the assay on SK-MEL-5 melanoma it was 3.17 µM; in the assay with HCC-2998 colon it was 2.27 µM. Moreover, the TGI in the assay on SK-OV-3 ovarian, with NCI-H23 lung, in the assay on T-47D breast, in the assay on SK-MEL-2 melanoma, in the assay on OVCAR-5 ovarian and in the assay on EKVX NSCLC was over 100 µM in each case. The TGI in the assay with M14 melanoma was over 100 µM; in the assay with RXF 393 renal it was over 100 µM; with SK-MEL-5 melanoma it was over 100 µM; in the assay on HCC-2998 colon, over 55.5 µM.
Consider `CC(C)(C)N1CC1CNC(=O)C(=O)NCC1CN1C(C)(C)C` (stereo not given), for which the TGI is 13.4 µM in the assay with SK-OV-3 ovarian; 5.96 µM in the assay with NCI-H23 lung; 98.1 µM with T-47D breast; 10.2 µM with SK-MEL-2 melanoma; 7.56 µM in the assay with OVCAR-5 ovarian; over 31.1 µM with EKVX NSCLC. Further, the TGI in the assay on M14 melanoma stood at 16.6 µM; with RXF 393 renal, 5.22 µM; with SK-MEL-5 melanoma, 45.2 µM; in the assay on HCC-2998 colon, 14.8 µM.
